Experimental findings from US20230159954A1, “Apparatus for Improved Transfection and / or intracellular delivery efficiency of an Agent into a Eukaryotic Cell and / or Protein Expression and Method of Use Thereof” (St Andrews Pharmaceutical Technology Ltd., priority 2020, published 2023) are described below.

Entries after “also recorded” stand apart in the source; their conditions may differ.

The test system of this series is Human Colon Tumour (HCT) 116 cells. Description: Western Blot of p53 isoforms after doxorubicin treatment with or without pulsed technology. The note with it: for uptake / intra-cellular delivery of doxorubicin from the media: concluded from upregulation of p53 isoforms. Type of series: cell-based. Here is the method: Human Colon Tumour (HCT) 116 cells (adherent cells) (ATCC, USA-ATCC® CCL-247™) were seeded at a density of 3×10^5 cells per well in two CELLSTAR® 6-well plates (9.6 cm^2) in a final volume of 5 mL Dulbecco's Modified Eagle Medium (DMEM) (Thermo Fisher, USA)+10% Fetal Bovine Serum (FBS) (Hyclone, USA) 24 hours before treatment.
The naked agent used was Doxorubicin (0.25 μM) (Sigma Aldrich) in absolute ethanol and was given to the cells for a 1 hour treatment period and incubated at 37° C., at 5% CO^2.
After treatment the media was removed and fresh media was added to the cells. One of the plates was incubated directly at 37° C., at 5% CO^2 and the second plate was placed in a different incubator and pulsed using the pulsed technology of the present invention at 37° C., at 5% CO^2.
Protein extracts were collected at 3 hours, 6 hours, 9 hours, 16 hours or 24 hours of treatment for analysis by SDS-page.
1. For protein extraction the cells were washed twice with ice-cold PBS and then lysed in NP-40 extraction buffer (50 mM Tris pH 7.5; 10% glycerol; 0.1% “NP-40 Alternative” (Merck Millpore, USA); 100 mM NaCl; 0.2 mM EDTA) supplemented with 1× Complete™ Protease Inhibitor Cocktail (Roche, Switzerland). Extracts were sonicated (20 seconds, 20% amplitude) and protein concentration was determined using BCA™ Protein Assay Kit (ThermoFisher Scientific, USA) according to the manufacturer's recommendations.
1. Protein extracts (15/20 μg depending on the experiment) were supplemented with 0.1M dithiothreitol (DTT) and 1×LDS buffer (Invitrogen, USA) and were heated at 95° C. for 10 min before loading on NuPAGE 10% Bis-Tris polyacrylamide gels (Invitrogen, USA).
2. Protein samples were separated by electrophoresis (100V) using 1×MOPS Running Buffer. Transfer of proteins was performed at 12V overnight onto a nitrocellulose membrane (Protran 0.1 μm from GE Healthcare, USA) in 1× Transfer Buffer supplemented with 20% methanol. 1× Transfer Buffer is prepared from 10× Wet blot solution containing 144 g of glycine and 30 g Tris-Base in a final volume of 1 L milli-Q water.
3. Membranes were blocked for 30 min in 5% BSA diluted in PBS-0.1% Tween20 before being incubated overnight with a primary antibody (Mouse monoclonal antibody DO1). After a wash of 15 min in PBS-Tween20, membranes were incubated for 1 h with a corresponding secondary antibody (HRP conjugated Donkey anti Mouse). All secondary antibodies, conjugated with Horse Radish Peroxidase (HRP), were purchased from Jackson ImmunoResearch lab and used at 1:10000/1:15000 dilution (depending on the antibody) in 5% BSA-PBS-Tween20.
At the end of the incubation membranes were washed twice with PBS-Tween20 for 15 min followed by a final 10 min wash with PBS. The chemiluminescence signal was detected on Hyperfilm™ ECL (Cytiva, USA) using the Amersham ECL Western Blotting Detection System (Cytiva, USA).
For orientation: A western blot detects proteins with antibodies after separation by electrophoresis.

Turning to `COc1cccc2c1C(=O)c1c(O)c3c(c(O)c1C2=O)C[C@@](O)(C(=O)CO)C[C@@H]3O[C@H]1C[C@H](N)[C@H](O)[C@H](C)O1` [Doxorubicin], the “p53alpha expression (Western Blot, FIG. 8)” value (0.25 μM doxorubicin for 1 hour, pulsed technology vs control, after 16 hours) is given as “significant overproduction of p53alpha compared to the control”. In addition, the “Other isoforms of p53 (d133p53alpha, d133p53beta, d160p53beta) expression (Western Blot, FIG. 7)” value (Doxorubicin 0.25 μM for 1 hour, pulsed technology vs control) is given as “more upregulated”. For the same compound, the “p53alpha expression (Western Blot, FIG. 7)” value (Doxorubicin 0.25 μM for 1 hour, pulsed technology vs control, seen from 3 hours, most evident 24 hours post-treatment) is on record as “upregulated”. Further, the “γH2AX expression (ionising radiation marker, Western Blot)” value (doxorubicin, pulsed technology arm vs control arm) was “no observed change; also recorded: remained unchanged”. Moreover, the “uptake / intra-cellular delivery of doxorubicin from the media” value is listed as “significantly improved” (pulsed technology vs control) and “increases the ability of the cells to uptake doxorubicin” (pulsed technology vs control, listed as doxorubicin).
